Assays:
HEK-Blue-hTLR7 cells = biological target: T1, HEK-Blue-hTLR7 cells (Homo sapiens, UniProt Q9NYK1); test: HEK-Blue-hTLR7 cell inhibition assay; assay type: cell-based; settings: R848 0.8 µM, 16 h, OD 620 nm, read-out: TLR7 IC50
T1 construct: expressed in transfected cells; host or cells: HEK-Blue-hTLR7 cells (HEK293-derived reporter line)
T1 sequence (Q9NYK1 27-1049): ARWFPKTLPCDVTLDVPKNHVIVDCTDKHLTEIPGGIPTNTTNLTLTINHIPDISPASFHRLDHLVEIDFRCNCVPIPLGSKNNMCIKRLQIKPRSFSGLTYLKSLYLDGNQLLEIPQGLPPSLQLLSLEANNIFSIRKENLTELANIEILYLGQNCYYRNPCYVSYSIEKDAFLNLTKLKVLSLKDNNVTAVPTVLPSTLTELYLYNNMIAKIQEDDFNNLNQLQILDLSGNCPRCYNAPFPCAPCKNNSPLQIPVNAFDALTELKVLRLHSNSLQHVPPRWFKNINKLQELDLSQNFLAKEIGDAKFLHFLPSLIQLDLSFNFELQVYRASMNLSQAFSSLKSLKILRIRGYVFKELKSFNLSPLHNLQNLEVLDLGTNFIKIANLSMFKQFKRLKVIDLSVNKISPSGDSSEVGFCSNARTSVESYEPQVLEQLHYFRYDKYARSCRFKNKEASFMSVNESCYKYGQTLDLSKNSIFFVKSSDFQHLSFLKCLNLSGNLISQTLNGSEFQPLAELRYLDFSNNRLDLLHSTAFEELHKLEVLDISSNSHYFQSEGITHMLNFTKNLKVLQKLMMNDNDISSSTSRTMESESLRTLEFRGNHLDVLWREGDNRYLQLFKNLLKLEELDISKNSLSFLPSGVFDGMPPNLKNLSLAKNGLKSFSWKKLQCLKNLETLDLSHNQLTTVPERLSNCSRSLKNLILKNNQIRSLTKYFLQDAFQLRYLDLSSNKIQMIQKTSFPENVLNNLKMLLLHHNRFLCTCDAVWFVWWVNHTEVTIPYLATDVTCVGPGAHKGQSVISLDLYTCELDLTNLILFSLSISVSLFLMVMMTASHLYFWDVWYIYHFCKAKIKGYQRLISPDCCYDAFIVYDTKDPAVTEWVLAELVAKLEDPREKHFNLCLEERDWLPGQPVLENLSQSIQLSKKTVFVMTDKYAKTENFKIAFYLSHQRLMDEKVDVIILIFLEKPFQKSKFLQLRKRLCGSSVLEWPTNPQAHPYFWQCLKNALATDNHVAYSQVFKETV
Method: (§1) HEK-Blue-hTLR7/8/9 cell inhibition assay
(§2) 1. HEK-Blue-hTLR7/8 cells (1 × 10^4 cells/well) and HEK-Blue-hTLR9 cells (1.5 × 10^4 cells/well) were seeded in a 384-well cell culture plate, with a volume of 30 µL per well. The plate was incubated at 37°C in a 5% CO2 incubator for 4 h. 2. The compound was prepared with DMSO and diluted in DMEM medium to 10 concentrations (1:3 dilution), with final concentrations of 10000, 3333.3, 1111.1, 370.4, 123.5, 41.2, 13.7, 4.6, 1.5, and 0.5 nM; R848 was prepared with DMSO and diluted in DMEM medium, with final concentrations of 0.8 µM (HEK-Blue-hTLR7) and 3 µM (HEK-Blue-hTLR8); ODN2006 was prepared with endotoxin-free water and diluted in DMEM medium, with a final concentration of 1 µM. 3. Cells treated with DMSO were used as the blank control group, while cells treated solely with Resiquimod (R848) were used as the positive control group for HEK-Blue-hTLR7/8, and cells treated solely with ODN2006 were used as the positive control group for HEK-Blue-hTLR9. Cells treated with the test compound together with R848 or ODN2006 were used as the test group. Two parallel wells were set for each group and were placed at 37°C in a 5% CO2 incubator for incubation. 4. After being incubated for 4 h, the 384-well plate of HEK-Blue-hTLR7/8 was taken out from the incubator, and R848 alone or both R848 and the diluted compound were separately added into each well. The plate was placed at 37°C in a 5% CO2 incubator for incubation for 16 h; the 384-well plate of HEK-Blue-hTLR9 was taken out from the incubator, and ODN2006 alone or both ODN2006 and the diluted compound were added separately to each well. The plate was incubated at 37°C in a 5% CO2 incubator for 16 h. 5. After being incubated for 16 h, the 384-well plate was removed from the incubator and centrifuged at 1000 rpm for 1 minute. The optical density value of each well at 620 nm was measured using a multifunctional microplate reader. 6. The cell inhibition rate was calculated as (1-(OD620 test group-OD620 blank group)/(OD620 positive group-OD620 blank group))×100%, and the half maximal inhibitory concentration (IC50) was calculated through curve fitting. Table 1: Activity of the compounds of the present disclosure in HEK-Blue-hTLR7/8/9 cellular assays

HEK-Blue-hTLR8 cells = biological target: T2, HEK-Blue-hTLR8 cells (Homo sapiens, UniProt Q9NR97); test: HEK-Blue-hTLR8 cell inhibition assay; assay type: cell-based; settings: R848 3 µM, 16 h, OD 620 nm, read-out: TLR8 IC50
T2 construct: expressed in transfected cells; host or cells: HEK-Blue-hTLR8 cells (HEK293-derived reporter line)
T2 sequence (Q9NR97 27-1041): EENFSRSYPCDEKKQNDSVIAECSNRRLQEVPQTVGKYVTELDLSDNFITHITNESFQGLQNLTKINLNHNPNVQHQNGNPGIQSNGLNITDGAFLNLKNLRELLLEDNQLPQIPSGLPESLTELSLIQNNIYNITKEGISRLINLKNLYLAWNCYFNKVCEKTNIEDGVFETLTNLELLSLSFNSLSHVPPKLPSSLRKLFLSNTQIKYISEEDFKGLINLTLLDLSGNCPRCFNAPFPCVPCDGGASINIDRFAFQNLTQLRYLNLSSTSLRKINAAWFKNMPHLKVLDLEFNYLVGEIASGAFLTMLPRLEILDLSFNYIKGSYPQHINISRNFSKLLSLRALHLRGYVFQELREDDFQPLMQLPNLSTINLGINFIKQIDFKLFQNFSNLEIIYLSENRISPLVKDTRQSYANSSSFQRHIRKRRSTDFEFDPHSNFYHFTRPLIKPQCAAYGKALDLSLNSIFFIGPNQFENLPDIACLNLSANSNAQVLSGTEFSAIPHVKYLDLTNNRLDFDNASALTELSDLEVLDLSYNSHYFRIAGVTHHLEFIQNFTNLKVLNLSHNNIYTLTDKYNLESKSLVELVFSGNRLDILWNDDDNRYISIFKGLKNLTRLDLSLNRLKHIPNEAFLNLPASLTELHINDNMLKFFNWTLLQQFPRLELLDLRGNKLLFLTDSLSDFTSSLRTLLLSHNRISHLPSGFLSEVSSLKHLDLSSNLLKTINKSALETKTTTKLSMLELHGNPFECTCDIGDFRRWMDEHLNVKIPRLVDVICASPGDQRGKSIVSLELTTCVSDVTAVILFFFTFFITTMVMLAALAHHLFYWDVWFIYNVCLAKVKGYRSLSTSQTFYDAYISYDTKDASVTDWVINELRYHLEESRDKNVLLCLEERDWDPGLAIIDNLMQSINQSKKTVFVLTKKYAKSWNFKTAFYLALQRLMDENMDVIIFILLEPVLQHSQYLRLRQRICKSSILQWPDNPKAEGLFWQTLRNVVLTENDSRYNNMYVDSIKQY
Method: as §1, §2

IC50 (HEK-Blue-hTLR7 cells)	IC50 (HEK-Blue-hTLR8 cells)	SMILES
< 100 nM	< 100 nM	N#Cc1ccc(N2C[C@]3(c4nnc(OCCN5CCCC5)o4)C[C@]3(C(F)(F)F)C2)c2cccnc12 [Compound 48, 5-((1S,5R)-1-(5-(2-(pyrrolidin-1-yl)ethoxy)-1,3,4-oxadiazol-2-yl)-5-(trifluoromethyl)-3-azabicyclo[3.1.0]hexan-3-yl)quinoline-8-carbonitrile]
< 100 nM	< 100 nM	CN1CCC(c2nnc([C@]34CN(c5cnc(C#N)c6ncccc56)C[C@@]3(C(F)(F)F)C4)o2)CC1 [Compound 68, 5-((1S,5R)-1-(5-(1-methylpiperidin-4-yl)-1,3,4-oxadiazol-2-yl)-5-(trifluoromethyl)-3-azabicyclo[3.1.0]hexan-3-yl)-1,7-naphthyridine-8-carbonitrile]
< 100 nM	< 100 nM	CN1CCC(c2nnc([C@]34CN(c5ccc(Cl)c6ncccc56)C[C@@]3(C(F)(F)F)C4)o2)CC1 [Compound 67, 2-((1S,5R)-3-(8-chloroquinolin-5-yl)-5-(trifluoromethyl)-3-azabicyclo[3.1.0]hexan-1-yl)-5-(1-methylpiperidin-4-yl)-1,3,4-oxadiazole]
< 100 nM	< 100 nM	CN1CCC(c2nnc([C@]34CN(c5ccc([N+](=O)[O-])c6ncccc56)C[C@@]3(C(F)(F)F)C4)o2)CC1 [Compound 62, 2-(1-methylpiperidin-4-yl)-5-((1S,5R)-3-(8-nitroquinolin-5-yl)-5-(trifluoromethyl)-3-azabicyclo[3.1.0]hexan-1-yl)-1,3,4-oxadiazole]
< 100 nM	< 100 nM	CN1CCC(n2cnc([C@]34CN(c5ccc(C#N)n6ncc(F)c56)C[C@@]3(C(F)(F)F)C4)n2)CC1 [Compound 74, 3-fluoro-4-((1S,5R)-1-(1-(1-methylpiperidin-4-yl)-1H-1,2,4-triazol-3-yl)-5-(trifluoromethyl)-3-azabicyclo[3.1.0]hexan-3-yl)pyrazolo[1,5-a]pyridine-7-carbonitrile]
< 100 nM	< 100 nM	Cc1ccc(N2C[C@]3(c4nnc(C5CCN(C)CC5)o4)C[C@]3(C(F)(F)F)C2)c2cccnc12 [Compound 65, 2-(1-methylpiperidin-4-yl)-5-((1S,5R)-5-(trifluoromethyl)-3-(8-methylquinolin-5-yl)-3-azabicyclo[3.1.0]hexan-1-yl)-1,3,4-oxadiazole]
< 100 nM	< 100 nM	CN(C)C12CCC(c3nnc([C@]45CN(c6ccc(C(F)(F)F)c7ncccc67)C[C@@]4(C(F)(F)F)C5)o3)(CC1)CC2 [Compound 82, N,N-dimethyl-4-(5-((1S,5R)-5-(trifluoromethyl)-3-(8-(trifluoromethyl)quinolin-5-yl)-3-azabicyclo[3.1.0]hexan-1-yl)-1,3,4-oxadiazol-2-yl)bicyclo[2.2.2]octan-1-amine]
> 1000 nM	< 1000 nM	CN1CCC(c2nnc([C@]34CN(c5ccc(C#N)c6c5ccc(=O)n6C)C[C@@]3(C(F)(F)F)C4)o2)CC1 [Compound 72, 1-methyl-5-((1S,5R)-1-(5-(1-methylpiperidin-4-yl)-1,3,4-oxadiazol-2-yl)-5-(trifluoromethyl)-3-azabicyclo[3.1.0]hexan-3-yl)-2-oxo-1,2-dihydroquinoline-8-carbonitrile]
< 100 nM	< 100 nM	CN1CCC(c2nnc([C@]34CN(c5ccc(C(F)(F)F)c6nccnc56)C[C@@]3(C(F)(F)F)C4)o2)CC1 [Compound 88, 2-(1-methylpiperidin-4-yl)-5-((1S,5R)-5-(trifluoromethyl)-3-(8-(trifluoromethyl)quinoxalin-5-yl)-3-azabicyclo[3.1.0]hexan-1-yl)-1,3,4-oxadiazole]
> 1000 nM	< 1000 nM	COc1ccc2c(N3C[C@]4(c5nnc(C6CCN(C)CC6)o5)C[C@]4(C(F)(F)F)C3)ccc(C#N)c2n1 [Compound 61, 2-methoxy-5-((1S,5R)-1-(5-(1-methylpiperidin-4-yl)-1,3,4-oxadiazol-2-yl)-5-(trifluoromethyl)-3-azabicyclo[3.1.0]hexan-3-yl)quinoline-8-carbonitrile]
> 1000 nM	> 1000 nM	Cc1ccc2c(N3C[C@]4(c5nnc(C6CCN(C)CC6)o5)C[C@]4(C(F)(F)F)C3)ccc(C#N)c2n1 [Compound 73, 2-methyl-5-((1S,5R)-1-(5-(1-methylpiperidin-4-yl)-1,3,4-oxadiazol-2-yl)-5-(trifluoromethyl)-3-azabicyclo[3.1.0]hexan-3-yl)quinoline-8-carbonitrile]
< 100 nM	< 100 nM	CN1CC2(CC(c3nnc([C@]45CN(c6ccc(C(F)(F)F)c7ncccc67)C[C@@]4(C(F)(F)F)C5)o3)C2)C1 [Compound 16, 2-(2-methyl-2-azaspiro[3.3]heptan-6-yl)-5-((1S,5R)-5-(trifluoromethyl)-3-(8-(trifluoromethyl)quinolin-5-yl)-3-azabicyclo[3.1.0]hexan-1-yl)-1,3,4-oxadiazole]
< 100 nM	< 100 nM	CN1CCC(c2nnc([C@]34CN(c5ccc(F)c6ncccc56)C[C@@]3(C(F)(F)F)C4)o2)CC1 [Compound 69, 2-((1S,5R)-3-(8-fluoroquinolin-5-yl)-5-(trifluoromethyl)-3-azabicyclo[3.1.0]hexan-1-yl)-5-(1-methylpiperidin-4-yl)-1,3,4-oxadiazole]

Reference: EP4806891A1 (Kangbaida (Sichuan) Biotechnology Co., Ltd., priority 2023, dated 2025)
